Values of other authors as cited in patent US20200115358A1, “ICARIIN AND ICARITIN DERIVATIVES” (H. LEE MOFFITT CANCER CENTER AND RESEARCH INSTITUTE, INC., priority 2016, published 2020).

Test system: MDSCs

| Compound | inflammatory responses associated with MDSCs |
| --- | --- |
| COc1ccc(-c2oc3c(CCC(C)(C)O)c(O)cc(O)c3c(=O)c2O)cc1 [ICT] | effectively inhibit |
| Icariin | effectively inhibit |
